From patent US20260144788A1, “COMPOUND FOR SHP2 PROTEIN DEGRADATION AND MEDICAL USES THEREOF” (UBIX THERAPEUTICS, INC., priority 2022, published 2026) come the findings set out here.

The test has as its target T1, SHP2 protein (Homo sapiens, UniProt Q06124).
T1 sequence (Q06124 1-593): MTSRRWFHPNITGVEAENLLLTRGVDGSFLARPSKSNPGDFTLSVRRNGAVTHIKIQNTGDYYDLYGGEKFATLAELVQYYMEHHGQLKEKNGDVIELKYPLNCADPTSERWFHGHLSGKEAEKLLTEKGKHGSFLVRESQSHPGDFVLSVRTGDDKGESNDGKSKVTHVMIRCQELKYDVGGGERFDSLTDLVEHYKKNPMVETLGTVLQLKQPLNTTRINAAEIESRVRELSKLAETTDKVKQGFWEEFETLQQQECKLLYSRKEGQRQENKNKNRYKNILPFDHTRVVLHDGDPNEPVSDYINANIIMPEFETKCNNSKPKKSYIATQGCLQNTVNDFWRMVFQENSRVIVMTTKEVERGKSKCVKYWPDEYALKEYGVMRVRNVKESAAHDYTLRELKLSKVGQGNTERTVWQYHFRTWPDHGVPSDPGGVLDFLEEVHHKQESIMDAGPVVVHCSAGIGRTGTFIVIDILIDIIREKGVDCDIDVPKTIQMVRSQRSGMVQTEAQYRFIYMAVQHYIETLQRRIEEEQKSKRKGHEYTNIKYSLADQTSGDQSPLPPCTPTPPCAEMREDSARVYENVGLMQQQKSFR
The test can be described thus: Measurement of SHP2 protein degradation in NCI-H358 cells (western blotting). It counts as cell-based. Also noted: endogenous in cells; host or cells: NCI-H358. Conditions: harvested after 24 hours. The procedure: H358 cells were treated with the synthesized Example compounds, and the amount of SHP2 protein present in the cells was measured using western blotting detection. The protocol for the experiment using H358 cells is as follows.
[Culture]H358 cells were resuspended in RPMI1640 with 25 mM HEPES (Hyclone, SH30255.01), 10% FBS (Hyclone, SV30207.02), 1% Penicillin-streptomycin (Welgene, LS 202-02) media, seeded at 3×10^5/mL in 12-well plates (1 mL each), and cultured for 24 hours.
[Compound treatment] Before compound treatment, the media was changed to 1 mL media, and then the 12-well plate was treated as follows. The 10 mM stock dissolved in DMSO was serially diluted 1/100 or 1/10 with the media, and the compound was treated to the cells at a final concentration of 0.001, 0.01, and 0.1 μM, and harvested after 24 hours. For the negative control group, DMSO diluted 1/1000 in the media was added (1 μL DMSO+999 μL media).
[Harvest]24 hours after compound treatment, each well was scraped with a cell lifter (SPL, 90040), pipetted with a 1 mL pipette, collected in a 1.5 mL microtube, and centrifuged (500 g, 5 min, 4° C.). The supernatant was removed, washed with PBS, and centrifuged again (500 g, 5 min, 4° C.). Afterwards, the supernatant was removed to prepare a pellet.
[Cell lysis and sample preparation] Lysis buffer was prepared as follows. RIPA buffer (Biosesang, RC2038-050-00)+0.5 mM PMSF (SIGMA, P7626)+1× Protease/Phosphatase Inhibitor (Cell signaling, 5872S) were added at 30 μL per tube, vortexed, and incubated on ice for 30 minutes. Afterwards, sonication was performed (10 sec pulse, 30 sec rest, 5 cycles, 70% amplification) and centrifugation was performed (15,000 g, 15 min, 4° C.), and only the supernatant was transferred to a microtube. A 96-well plate was diluted to 1/4 with 7.5 μL of RIPA buffer and 2.5 μL of sample, and 200 μL each was added after mixing A and B of the BCA Protein Assay Kit (iNtRON, 21071) in a ratio of 50:1. The plate was incubated at 37° C. for 30 minutes and left at room temperature for 10 minutes. After shaking for 10 seconds with a SYNERGY H1 microplate reader from BioTek, the absorbance was measured at 562 nm. The protein was quantified using the measured value to make a sample, which was then incubated at 70° C. for 10 minutes. The sample buffer used here was a mixture of NuPAGE or Bolt 4× sample buffer (Invitrogen) and each 10× sample reducing agent depending on the gel to be used, and RIPA buffer was used for protein dilution.
[Western blotting detection] Equal amounts of samples were loaded onto NuPAGE or Bolt Bis-tris 4-12% gradient gel and run (200 V, 35 min). This was transferred to […] NC membrane using Trans-blot Turbo (BIO-RAD) (1.3 A constant, 25 V limit, 15 min), and blocked with 5% skim milk/0.2% TBST for 45 min at room temperature. Anti-SHPTP2 Mouse (1:1,000 in 5% skim milk/0.2% TBST, size: 70 kDa, Santa cruz sc-7384) and Anti-GAPDH Rabbit (1:2,000 in 5% skim milk or 5% BSA/0.2% TBST, size: 37 kDa, CST #2118) were added and incubated overnight at 4° C. After washing three times with 0.2% TBST washing buffer for 5 minutes each, secondary antibodies Anti-Mouse IgG (1:5,000 in 5% skim milk/0.2% TBST, CST) and IRDye® 680RD Goat anti-Rabbit IgG Secondary Antibody (1:10,000 in 5% skim milk/0.2% TBST, LI-COR 926-68071) were added, and incubated on a rocker at room temperature for 45 minutes. The resultants were washed five times with 0.2% TBST washing buffer for 5 minutes each, and detected using LI-COR's Odyssey. GAPDH was detected with a 700 nm channel, and SHPTP2 was detected using SuperSignal West Pico PLUS Chemiluminescent Substrate.

Molecules are shown by their SMILES.

On to `Cc1cc(C(C(=O)N2C[C@H](O)C[C@H]2C(=O)NCc2ccc(-c3scnc3C)cc2OC2CCN(C(=O)C3CCN(c4nccc(Sc5cnc(N6CCC7(CC6)CO[C@@H](C)[C@H]7N)c(CO)n5)c4Cl)CC3)CC2)C(C)C)on1` (stereo partly drawn) [Example 98, (2S,4R)—N-(2-((1-(1-(4-((5-((3S,4S)-4-amino-3-methyl-2-oxa-8-azaspiro[4.5]decan-8-yl)-6-(hydroxymethyl)pyrazin-2-yl)thio)-3-chloropyridin-2-yl)piperidine-4-carbonyl)piperidin-4-yl)oxy)-4-(4-methylthiazol-5-yl)benzyl)-4-hydroxy-1-(3-methyl-2-(3-methylisoxazol-5-yl)butanoyl)pyrrolidine-2-carboxamide], for which the SHP2% degradation was 99.6% (0.01 μM) and 99.7% (0.1 μM).

`CC(=O)N[C@H](C(=O)N1C[C@H](O)C[C@H]1C(=O)NCc1ccc(-c2scnc2C)cc1O[C@H]1CC[C@H](C(=O)N2CCC(Nc3nccc(Sc4cnc(N5CCC(C)(CN)CC5)c(CO)n4)c3Cl)CC2)CC1)C(C)(C)C` [Example 45, (2S,4R)-1-((S)-2-acetamido-3,3-dimethylbutanoyl)-N-(2-(((1r,4S)-4-(4-((4-((5-(4-(aminomethyl)-4-methylpiperidin-1-yl)-6-(hydroxymethyl)pyrazin-2-yl)thio)-3-chloropyridin-2-yl)amino)piperidine-1-carbonyl)cyclohexyl)oxy)-4-(4-methylthiazol-5-yl)benzyl)-4-hydroxypyrrolidine-2-carboxamide]: the SHP2% degradation (0.01 μM) worked out at 97.0% and the SHP2% degradation (0.1 μM) is 99.4%.

Regarding `CC(=O)N[C@H](C(=O)N1C[C@H](O)C[C@H]1C(=O)NCc1ccc(-c2scnc2C)cc1OC1CCN(C(=O)C2CCN(c3cccc(Sc4cnc(N5CCC(C)(CN)CC5)cn4)c3Cl)CC2)CC1)C(C)(C)C` [Example 82, (2S,4R)-1-((S)-2-acetamido-3,3-dimethylbutanoyl)-N-(2-((1-(1-(3-((5-(4-(aminomethyl)-4-methylpiperidin-1-yl)pyrazin-2-yl)thio)-2-chlorophenyl)piperidine-4-carbonyl)piperidin-4-yl)oxy)-4-(4-methylthiazol-5-yl)benzyl)-4-hydroxypyrrolidine-2-carboxamide], the SHP2% degradation runs as follows: (0.01 μM) 94.9%; (0.1 μM) 97.4%.

`Cc1ncsc1-c1ccc(CNC(=O)[C@@H]2C[C@@H](O)CN2C(=O)[C@H](C(C)C)n2cc(C3CC3)nn2)c(OC2CCN(C(=O)C3CCN(c4nccc(Sc5cnc(N6CCC7(CC6)CO[C@@H](C)[C@H]7N)c(CO)n5)c4Cl)CC3)CC2)c1` [Example 106, (2S,4R)—N-(2-((1-(1-(4-((5-((3S,4S)-4-amino-3-methyl-2-oxa-8-azaspiro[4.5]decan-8-yl)-6-(hydroxymethyl)pyrazin-2-yl)thio)-3-chloropyridin-2-yl)piperidine-4-carbonyl)piperidin-4-yl)oxy)-4-(4-methylthiazol-5-yl)benzyl)-1-((S)-2-(4-cyclopropyl-1H-1,2,3-triazol-1-yl)-3-methylbutanoyl)-4-hydroxypyrrolidine-2-carboxamide]: the SHP2% degradation was 99.1% (0.01 μM) and 97.3% (0.1 μM).

`Cc1ncsc1-c1ccc(CNC(=O)[C@@H]2C[C@@H](O)CN2C(=O)[C@@H](NC(=O)C2(F)CC2)C(C)(C)C)c(OC2CCN(C(=O)C3CN(c4nccc(Sc5cnc(N6CCC(C)(CN)CC6)cn5)c4Cl)C3)CC2)c1` [Example 63, (2S,4R)—N-(2-((1-(1-(4-((5-(4-(aminomethyl)-4-methylpiperidin-1-yl)pyrazin-2-yl)thio)-3-chloropyridin-2-yl)azetidine-3-carbonyl)piperidin-4-yl)oxy)-4-(4-methylthiazol-5-yl)benzyl)-1-((S)-2-(1-fluorocyclopropane-1-carboxamido)-3,3-dimethylbutanoyl)-4-hydroxypyrrolidine-2-carboxamide]: the SHP2% degradation is, setting by setting: (0.01 μM) 53.0%; (0.1 μM) 99.0%.

In the case of `CC(=O)N[C@H](C(=O)N1C[C@H](O)C[C@H]1C(=O)NCc1ccc(-c2scnc2C)cc1OC1CCN(C(=O)C2CCN(c3cccc(Sc4cnc(N5CCC6(CC5)CO[C@@H](C)[C@H]6N)c(CO)n4)c3Cl)CC2)CC1)C(C)(C)C` [Example 85, (2S,4R)-1-((S)-2-acetamido-3,3-dimethylbutanoyl)-N-(2-((1-(1-(3-((5-((3S,4S)-4-amino-3-methyl-2-oxa-8-azaspiro[4.5]decan-8-yl)-6-(hydroxymethyl)pyrazin-2-yl)thio)-2-chlorophenyl)piperidine-4-carbonyl)piperidin-4-yl)oxy)-4-(4-methylthiazol-5-yl)benzyl)-4-hydroxypyrrolidine-2-carboxamide], the SHP2% degradation was determined as 98.3% (0.01 μM) and 99.9% (0.1 μM).

For `Cc1ncsc1-c1ccc(CNC(=O)[C@@H]2C[C@@H](O)CN2C(=O)[C@@H](NC(=O)CO)C(C)(C)C)c(OC2CCN(C(=O)C3CCN(c4nccc(Sc5cnc(N6CCC7(CC6)CO[C@@H](C)[C@H]7N)c(CO)n5)c4Cl)CC3)CC2)c1` [Example 89, (2S,4R)—N-(2-((1-(1-(4-((5-((3S,4S)-4-amino-3-methyl-2-oxa-8-azaspiro[4.5]decan-8-yl)-6-(hydroxymethyl)pyrazin-2-yl)thio)-3-chloropyridin-2-yl)piperidine-4-carbonyl)piperidin-4-yl)oxy)-4-(4-methylthiazol-5-yl)benzyl)-4-hydroxy-1-((S)-2-(2-hydroxyacetamido)-3,3-dimethylbutanoyl)pyrrolidine-2-carboxamide], the SHP2% degradation by setting is: (0.01 μM) 98.8%; (0.1 μM) 99.9%.

`CC(=O)N[C@H](C(=O)N1C[C@H](O)C[C@H]1C(=O)NCc1ccc(-c2scnc2C)cc1O[C@H]1CC[C@H](C(=O)N2CCC(c3nccc(Sc4cnc(N5CCC(C)(CN)CC5)cn4)c3Cl)CC2)CC1)C(C)(C)C` [Example 47, (2S,4R)-1-((S)-2-acetamido-3,3-dimethylbutanoyl)-N-(2-(((1r,4S)-4-(4-(4-((5-(4-(aminomethyl)-4-methylpiperidin-1-yl)pyrazin-2-yl)thio)-3-chloropyridin-2-yl)piperidine-1-carbonyl)cyclohexyl)oxy)-4-(4-methylthiazol-5-yl)benzyl)-4-hydroxypyrrolidine-2-carboxamide]: the SHP2% degradation reads like this: (0.01 μM) −34.6%; (0.1 μM) 50.6%.
